Measured values as given in patent US8518450B2, “Nanoparticle carriers for drug administration and process for producing same” (CSIR, priority 2008, dated 2013).

What was measured:
[1] = Drug incorporation / encapsulation efficiency of INH (UV-Vis); type: physicochemical; settings: spray dried PLGA nanoparticles, PLGA:INH 2:1
Protocol: The amount of the hydrophilic drug Isoniazid that was entrapped in the particle powder after the nanoencapsulation process was measured in triplicate using a spectrophotometric method (UV-Vis, Thermo Spectronic Heliosα). The encapsulation efficiency of INH in nanoparticles was determined as the mass ratio of the entrapped INH to the theoretical amount of INH used in the preparation. For that, 50 mg of precipitated particles were re-suspended in 20 ml of deionised water, centrifuged (10 000 rpm/10 C/5 min) to remove the un-encapsulated drug and the supernatant was subject to UV-Vis Spectrophotometer, read at λ=262 nm for INH assessment. The encapsulated amount of INH was determined by subtracting INH in the supernatant from total initial INH amount.

[2] = INH stability assessment using RP-HPLC; type: physicochemical; settings: formulation with lactose
Protocol: The stability of INH spray dried powders was assessed by reverse phase-high performance liquid chromatography-analysis (RP-HPLC) using Shimadzu machine supplied with Photodiode Array (PDA) detector.
The following characteristics were applied: a Column Phenomenex [(C18 (5 μm); (250×4.6 mm ID)], a mobile phase of 5% (v/v) acetonitrile with 95% (v/v) buffer NaH2PO4 (pH 6.8), at a flow rate of 1 ml/min and at a temperature of 30° C. The detection was performed using PDA at λ=259 nm, on a total injection volume of 20 μl.

In the case of `NNC(=O)c1ccncc1` [INH, isoniazid], the “encapsulation efficiency of INH” value [1] is reported as about 60% and the “stability of INH in spray dried powders (HPLC)” value [2] is reported as “degradation of INH”.
